Literature values, collected in PMC9358669, “Native metabolomics identifies the rivulariapeptolide family of protease inhibitors” (Nature Communications, 2022).
Starred links: 1 amine or outer side, 2 acyl side, 3 side chain; linkers in the order of their positions; H or OH if unused. Positions of bridges follow the written chain, without caps; N, C: chain ends. Non-standard residues stand in square brackets, D forms with d. Residues, ends and D or L forms follow the SMILES beside them. *: point of attachment. Ahp(3S,6R)alloIle = CC[C@@H](C)[C@@H](C(=O)[*:2])N1C(=O)[C@@H](N[*:1])CC[C@H]1O; Propanoyl(2R-OMe,3-OSO3H) = CO[C@H](COS(=O)(=O)O)C(=O)*; NMeTyr(3-Br,OMe) = CN[C@@H](Cc1ccc(OC)c(Br)c1)C(=O)O

Test system: Chymotrypsin
Set-up: method as in earlier work
Conditions: Supplementary Table 5, Top 50 chymotrypsin inhibitors among Ahp-cyclodepsipeptides; cited from earlier work

Row | Structure (SMILES) | IC50
1 | C/C=C1\NC(=O)[C@@H](NC(=O)[C@@H](NC(=O)[C@H](C)NC(=O)CCC)C(C)C)[C@@H](C)OC(=O)[C@H](C(C)C)NC(=O)[C@H](Cc2ccc(O)cc2)N(C)C(=O)[C@H](Cc2ccccc2)N2C(=O)[C@H](CC[C@H]2O)NC1=O [Bouillomide A] | 170 nM
2 | CCC(=O)N[C@@H](CCC(N)=O)C(=O)N[C@@H]1C(=O)N[C@@H](CC(C)C)C(=O)N[C@H]2CC[C@@H](O)N(C2=O)[C@@H](Cc2ccccc2)C(=O)N(C)[C@@H](Cc2ccc(O)cc2)C(=O)N[C@@H](C(C)C)C(=O)O[C@@H]1C [Crocapeptin A1] | 100 nM
3 | CC(C)C[C@@H]1NC(=O)[C@@H](NC(=O)[C@H](CCC(N)=O)NC(=O)C(C)C)[C@@H](C)OC(=O)[C@H](C(C)C)NC(=O)C(Cc2ccc(O)cc2)N(C)C(=O)[C@H](Cc2ccccc2)N2C(=O)[C@H](CC[C@H]2O)NC1=O (stereo partly shown) [Crocapeptin A2] | 100 nM
4 | CCC(C)C(=O)N[C@@H](CCC(N)=O)C(=O)N[C@@H]1C(=O)N[C@@H](CC(C)C)C(=O)N[C@H]2CC[C@@H](O)N(C2=O)[C@@H](Cc2ccccc2)C(=O)N(C)[C@@H](Cc2ccc(O)cc2)C(=O)N[C@@H](C(C)C)C(=O)O[C@@H]1C (stereo partly shown) [Crocapeptin A3] | 100 nM
5 | CCCCCC(=O)N[C@@H](CC(=O)O)C(=O)N[C@@H]1C(=O)N[C@@H](Cc2ccc(O)cc2)C(=O)N[C@H]2CC[C@@H](O)N(C2=O)[C@@H](CC(C)C)C(=O)N(C)[C@@H](Cc2ccccc2)C(=O)N[C@@H](C(C)C)C(=O)O[C@@H]1C [Cyanopeptolin 963A] | 900 nM
6 | CCCCCC(=O)NC(CC(=O)O)C(=O)NC1C(=O)NC(Cc2ccc(O)cc2)C(=O)NC2CCC(O)N(C2=O)C(Cc2ccccc2)C(=O)N(C)C(CCc2ccc(O)cc2)C(=O)NC(C(C)C)C(=O)OC1C (stereo not shown) [Cyanopeptolin CP1027] | 260 nM
7 | CC[C@@H](C)[C@H]1C(=O)N(C)[C@@H](Cc2ccc(OC)c(Br)c2)C(=O)N[C@@H]([C@@H](C)CC)C(=O)O[C@H](C)[C@H](NC(=O)[C@@H](NC(=O)[C@@H](COS(=O)(=O)O)OC)C(C)C)C(=O)N[C@@H](CCCCN)C(=O)N[C@H]2CC[C@@H](O)N1C2=O [Jizanpeptin C] ({Propanoyl(2R-OMe,3-OSO3H)}-VTK[Ahp(3S,6R)alloIle][NMeTyr(3-Br,OMe)]I; ester 2-C) | 1400 nM
8 | CC(C)C[C@@H]1NC(=O)[C@@H](NC(=O)[C@@H](NC(=O)[C@H](C)NC(=O)[C@H](CCCc2ccc(O)cc2)NC(=O)[C@H](O)CO)C(C)C)[C@@H](C)OC(=O)[C@H](C(C)C)NC(=O)[C@H](Cc2ccc(O)c(Br)c2)N(C)C(=O)[C@@H]2[C@H](C)O[C@@H]3CC[C@H](NC1=O)C(=O)N23 [Largamide D oxazolidine] | 928 nM
9 | CCCCCC(=O)NCC(=O)N[C@H](C(=O)N[C@@H]1C(=O)N[C@@H](CCC(N)=O)C(=O)N[C@H]2CC[C@@H](O)N(C2=O)[C@@H](Cc2ccccc2)C(=O)N(C)[C@@H](Cc2c[nH]c3ccccc23)C(=O)N[C@@H](C(C)C)C(=O)O[C@@H]1C)[C@@H](C)O [Micropeptin 103] | 1000 nM
10 | CCCCCC(=O)N[C@@H](CCC(=O)O)C(=O)N[C@@H]1C(=O)N[C@@H](Cc2ccc(O)cc2)C(=O)N[C@H]2CC[C@@H](O)N(C2=O)[C@@H](Cc2ccccc2)C(=O)N(C)[C@@H](Cc2ccc(O)cc2)C(=O)N[C@@H](C(C)C)C(=O)O[C@@H]1C [Micropeptin C] | 1100 nM
